Key:
Format in all cases: cell-based
[1] = biological target: T1, human MRGPRX4-83L (Homo sapiens, UniProt Q96LA9); test: Calcium assay (human MRGPRX4 83L), recombinant astrocytes; conditions: for EC50: calcium mobilization, MRGPRX4-83L, read-out: EC50 ± SEM; for Emax: read-out: Emax
T1 construct: host or cells: CHO β-arrestin cells
Experimental: (§1) For β-arrestin recruitment assays, recombinant Chinese hamster ovary (CHO) cells expressing the human MRGPRX4 were used (DiscoverX/Eurofins) which allowed to measure β-galactosidase complementation upon β-arrestin recruitment. For calcium mobilization assays, recombinant astrocytes expressing MRGPX4-83L, or LN229 glioblastoma cells natively expressing the MRGPRX4-83S, were used.
(§2) The assays were performed as previously described for other rhodopsin-like GPCRs (Müller, C.E.; 8-Benzamidochromen-4-one-2-carboxylic acids: potent and selective agonists for the orphan G protein-coupled receptor GPR35. J. Med. Chem. 2013, 56:5182-97; Müller, C.E. Molecular Recognition of Agonists and Antagonists by the Nucleotide-Activated G Protein-Coupled P2Y2 Receptor. J. Med. Chem. 2017, 60:8425-8440).

[2] = biological target: T2, MRGPRX4-83S (Homo sapiens, UniProt Q96LA9, L83S); test: Calcium assay (human glioblastoma LN229 cells expressing the MRGPRX4-83S); design: LN229 glioblastoma cells natively expressing the MRGPRX4-83S; endogenous in cells; host or cells: LN229 human glioblastoma cells; conditions: for EC50: calcium mobilization, LN229 cells, MRGPRX4-83S, read-out: EC50 ± SEM; for Emax: LN-229, efficacy based on 30 μM H-1 (set as 100%), read-out: Emax
Experimental: as §1, §2

[3] = biological target: T1, human MRGPRX4-83L; test: β-arrestin assay (CHO β-arrestin ARMS1-ProLink 2 human MRGPRX4 83L); conditions: for IC50: inhibition of the effect of 2.6 μM B-16; for EC50: β-arrestin recruitment, CHO cells, MRGPRX4-83L, read-out: EC50 ± SEM; for Emax: read-out: Emax
Experimental: as §1, §2

[4] = biological target: T2, MRGPRX4-83S; test: β-arrestin assay (CHO β-arrestin human MRGPRX4-83S); design: host or cells: CHO β-arrestin cells; conditions: for Emax: efficacy based on 100 nM B-16 (set as 100%), read-out: Emax; for EC50: β-arrestin recruitment, CHO cells, MRGPRX4-83S, read-out: EC50 ± SEM
Experimental: as §1, §2

[5] = Table 1, means of 3-4 experiments
[6] = Table 1, efficacy based on maximal effect of 1 μM B-16 (set as 100%)
[7] = Table 1, efficacy based on maximal effect of 100 nM B-16 (set as 100%)

T1 sequence (Q96LA9 whole entry): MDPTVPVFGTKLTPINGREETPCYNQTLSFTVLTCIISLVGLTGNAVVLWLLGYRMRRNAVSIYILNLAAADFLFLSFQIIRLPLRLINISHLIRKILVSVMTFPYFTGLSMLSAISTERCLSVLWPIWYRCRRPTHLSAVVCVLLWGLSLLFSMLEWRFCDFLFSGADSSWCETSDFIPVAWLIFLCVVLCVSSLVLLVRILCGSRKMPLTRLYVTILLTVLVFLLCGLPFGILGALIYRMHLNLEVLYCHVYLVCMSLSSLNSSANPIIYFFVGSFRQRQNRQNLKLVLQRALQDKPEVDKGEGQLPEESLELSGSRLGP
T2 sequence (Q96LA9 whole entry L83S): as the sequence (Q96LA9 whole entry) above, with L83S counted along it

| EC50 ([1]; Table 1) | EC50 ([2]; Table 2) | IC50 ([3]; Table 1) | EC50 [3, 5] | Emax ([4]; Table 2) | EC50 ([4]; Table 2) | Emax [1, 6] | Emax ([2]; Table 2) | Emax [3, 7] | Compound | IC50 [1] | also measured |
| --- | --- | --- | --- | --- | --- | --- | --- | --- | --- | --- | --- |
| > 10000 nM | > 10000 nM | > 10000 nM | > 10000 nM | – | – | – | – | – | C#CCn1c(=O)c2c(nc(-c3cccc(OC)c3)n2C)n(CCCOP(=O)(O)O)c1=O [A-1, 3-(8-(3-Methoxyphenyl)-7-methyl-2,6-dioxo-1-(prop-2-yn-1-yl)-1,2,6,7-tetrahydro-3H-purin-3-yl)propyl dihydrogen phosphate, reference compound] | > 10000 nM | – |
| 3250 ± 610 nM | 134 ± 17 nM | > 10000 nM | > 10000 nM | 84% | 399 ± 115 nM | 110% | 92% | – | C#CCn1c(=O)c2[nH]c(CCc3ccccc3)nc2n(CCCCP(=O)(O)O)c1=O [B-1, (4-(2,6-Dioxo-8-phenethyl-1-(prop-2-yn-1-yl)-1,2,6,7-tetrahydro-3H-purin-3-yl)butyl)phosphonic acid] | – | – |
| 435 ± 78 nM | 11.2 ± 1.3 nM | – | 5710 ± 1230 nM | 98% | 32 ± 11 nM | 102% | 99% | 91% | C#CCn1c(=O)c2[nH]c(CCc3cccc(OC)c3)nc2n(CCCCP(=O)(O)O)c1=O [B-2, (4-(8-(3-Methoxyphenethyl)-2,6-dioxo-1-(prop-2-yn-1-yl)-1,2,6,7-tetrahydro-3H-purin-3-yl)butyl)phosphonic acid] | – | – |
| 3800 ± 190 nM | 214 ± 51 nM | > 10000 nM | > 10000 nM | 102% | 1190 ± 50 nM | 104% | 94% | – | CCn1c(=O)c2[nH]c(CCc3cccc(OC)c3)nc2n(CCCCP(=O)(O)O)c1=O [B-12, (4-(1-Ethyl-8-(3-methoxyphenethyl)-2,6-dioxo-1,2,6,7-tetrahydro-3H-purin-3-yl)butyl)phosphonic acid] | – | value in brackets beside IC50 >10 ([3]; Table 1, bracketed value ± spread in IC50 column, not defined, inhibition of 2.6 μM B-16): −27 ± 9 |
| 1600 ± 460 nM | 59.9 ± 10.7 nM | – | 48300 ± 14100 nM | 93% | 68.9 ± 17 nM | 94% | 91% | 96% | COc1cccc(CCc2nc3c([nH]2)c(=O)n(CC2CCC2)c(=O)n3CCCCP(=O)(O)O)c1 [B-13, (4-(1-(Cyclobutylmethyl)-8-(3-methoxyphenethyl)-2,6-dioxo-1,2,6,7-tetrahydro-3H-purin-3-yl)butyl)phosphonic acid] | – | – |
| 333 ± 7 nM | 19.2 ± 3.5 nM | – | 6280 ± 1380 nM | 140% | 30 ± 5.8 nM | 113% | 132% | 141% | C#CCn1c(=O)c2c(nc(CCc3cccc(OC)c3)n2C)n(CCCCP(=O)(O)O)c1=O [B-15, (4-(8-(3-Methoxyphenethyl)-7-methyl-2,6-dioxo-1-(prop-2-yn-1-yl)-1,2,6,7-tetrahydro-3H-purin-3-yl)butyl)phosphonic acid] | – | – |
| 32.4 ± 5.6 nM | 3.17 ± 0.6 nM | – | 370 ± 50 nM | 100% | 2.28 ± 0.16 nM | – | 137% | – | C#CCn1c(=O)c2c(nc(CCc3cccc(C(F)(F)F)c3)n2C)n(CCCCP(=O)(O)O)c1=O [B-16, (4-(7-Methyl-2,6-dioxo-1-(prop-2-yn-1-yl)-8-(3-(trifluoromethyl)phenethyl)-1,2,6,7-tetrahydro-3H-purin-3-yl)butyl)phosphonic acid] | – | Emax at 1 µM [1, 6]: 100%; Emax at 0.1 µM [3, 7]: 100% |
| 2.23 ± 0.13 nM | – | – | 169 ± 60 nM | – | – | 109% | – | 114% | C#CCn1c(=O)c2c(nc(CCc3ccccc3Cl)n2C)n(CCCCP(=O)(O)O)c1=O [B-17, (4-(8-(2-Chlorophenethyl)-7-methyl-2,6-dioxo-1-(prop-2-yn-1-yl)-1,2,6,7-tetrahydro-3H-purin-3-yl)butyl)phosphonic acid] | – | – |
| 6.35 ± 1.67 nM | 0.501 ± 0.076 nM | – | 93.5 ± 5.4 nM | 128% | 0.296 ± 0.033 nM | 112% | 108% | 132% | C#CCn1c(=O)c2c(nc(CCc3ccccc3Br)n2C)n(CCCCP(=O)(O)O)c1=O [B-18, (4-(8-(2-Bromophenethyl)-7-methyl-2,6-dioxo-1-(prop-2-yn-1-yl)-1,2,6,7-tetrahydro-3H-purin-3-yl)butyl)phosphonic acid] | – | – |
| – | – | – | – | – | – | – | – | – | C#CCn1c(=O)c2c(nc(CCc3c(C)cccc3C)n2CC)n(CCCCP(=O)(O)O)c1=O [B-33, (4-(8-(2,6-Dimethylphenethyl)-7-ethyl-2,6-dioxo-1-(prop-2-yn-1-yl)-1,2,6,7-tetrahydro-3H-purin-3-yl)butyl)phosphonic acid] | – | Emax ([4]; Table 3): 113%; EC50 ([4]; Table 3): 0.0487 ± 0.0201 nM; Emax ([2]; Table 3): 113%; EC50 ([2]; Table 3): 0.543 ± 0.186 nM |
| – | – | – | – | – | – | – | – | – | C#CCn1c(=O)c2c(nc(Cc3ccc4ccccc4c3)n2CC)n(CCCCP(=O)(O)O)c1=O [B-58] | – | EC50 ([4]; Table 3): > 100000 nM; EC50 ([1]; Table 4): > 10000 nM; IC50 [2]: 31.7 ± 19.1 nM; EC50 ([2]; Table 3): > 10000 nM; EC50 ([3]; Table 4): > 10000 nM |
| > 10000 nM | – | > 10000 nM | > 10000 nM | – | > 10000 nM | – | – | – | C#CCn1c(=O)c2[nH]c(CCc3ccccc3Br)nc2n(CCCCS(=O)(=O)O)c1=O [E-1, 4-(8-(2-Bromophenethyl)-2,6-dioxo-1-(prop-2-yn-1-yl)-1,2,6,7-tetrahydro-3H-purin-3-yl)butane-1-sulfonic acid] | > 10000 nM | – |
| > 10000 nM | – | > 10000 nM | > 10000 nM | – | > 10000 nM | – | – | – | C#CCn1c(=O)c2[nH]c(CCc3cccc(OC)c3)nc2n(CCCCS(=O)(=O)O)c1=O [E-3, 4-(8-(3-Methoxyphenethyl)-2,6-dioxo-1-(prop-2-yn-1-yl)-1,2,6,7-tetrahydro-3H-purin-3-yl)butane-1-sulfonic acid] | > 10000 nM | – |
| 574 ± 179 nM | 238 ± 11 nM | – | 13000 ± 4100 nM | 86% | 374 ± 111 nM | 107% | 98% | 97% | C#CCn1c(=O)c2c(nc(CCc3cccc(OC)c3)n2C)n(CCCOP(=O)(O)O)c1=O [H-1, 3-(8-(3-Methoxyphenethyl)-7-methyl-2,6-dioxo-1-(prop-2-yn-1-yl)-1,2,6,7-tetrahydro-3H-purin-3-yl)propyl dihydrogen phosphate, reference compound] | – | – |

| Compound | EC50 ([1]; Table 1) | EC50 ([2]; Table 2) | IC50 ([3]; Table 1) | EC50 [3, 5] | Emax ([4]; Table 2) | EC50 ([4]; Table 2) | Emax [1, 6] | Emax ([2]; Table 2) | Emax [3, 7] | IC50 [1] | also measured |
| --- | --- | --- | --- | --- | --- | --- | --- | --- | --- | --- | --- |
| C#CCn1c(=O)c2[nH]c(CCc3cccc(OC)c3)nc2n(CCCCP(=O)(OCC)OCC)c1=O [C-6, Diethyl (4-(8-(3-methoxyphenethyl)-2,6-dioxo-1-(prop-2-yn-1-yl)-1,2,6,7-tetrahydro-3H-purin-3-yl)butyl)phosphonate] | > 10000 nM | – | > 10000 nM | > 10000 nM | – | > 10000 nM | – | – | – | > 10000 nM | – |
| C#CCn1c(=O)c2[nH]c(CCc3ccc(OC)c(OC)c3)nc2n(CCCCP(=O)(OCC)OCC)c1=O [C-8, Diethyl (4-(8-(3,4-dimethoxyphenethyl)-2,6-dioxo-1-(prop-2-yn-1-yl)-1,2,6,7-tetrahydro-3H-purin-3-yl)butyl)phosphonate] | > 10000 nM | – | > 10000 nM | > 10000 nM | – | > 10000 nM | – | – | – | > 10000 nM | – |
| CCOP(=O)(CCCCn1c(=O)n(CC)c(=O)c2[nH]c(COc3ccccc3)nc21)OCC [C-10, Diethyl (4-(1-ethyl-2,6-dioxo-8-(phenoxymethyl)-1,2,6,7-tetrahydro-3H-purin-3-yl)butyl)phosphonate] | > 10000 nM | – | > 10000 nM | > 10000 nM | – | > 10000 nM | – | – | – | > 10000 nM | – |
| C#CCn1c(=O)c2c(nc(CCc3ccccc3Br)n2C)n(CCCCP(=O)(O)OCC)c1=O [D-1, Ethyl hydrogen (4-(8-(2-bromophenethyl)-7-methyl-2,6-dioxo-1-(prop-2-yn-1-yl)-1,2,6,7-tetrahydro-3H-purin-3-yl)butyl)phosphonate] | 55.5 ± 9 nM | 134 ± 12 nM | – | 395 ± 126 nM | 120% | 114 ± 23 nM | 115% | 105% | 108% | – | – |

— patent US20240002416A1 (Rheinische-Friedrich-Wilhelms-Universität Bonn, priority 2020, published 2024)
